Measured values from patent publication US20070010514A1, “Non-steroidal progesterone receptor modulators” (priority 2005, published 2007).

What was measured:
[1] = target: T1, PR-B progesterone receptor (Homo sapiens, UniProt P06401); experiment: Antagonism at the PR-B progesterone receptor (transactivation assay); type: cell-based; settings: for IC50: read-out: Antagonistic Activity IC50
T1 sequence (P06401 1-933): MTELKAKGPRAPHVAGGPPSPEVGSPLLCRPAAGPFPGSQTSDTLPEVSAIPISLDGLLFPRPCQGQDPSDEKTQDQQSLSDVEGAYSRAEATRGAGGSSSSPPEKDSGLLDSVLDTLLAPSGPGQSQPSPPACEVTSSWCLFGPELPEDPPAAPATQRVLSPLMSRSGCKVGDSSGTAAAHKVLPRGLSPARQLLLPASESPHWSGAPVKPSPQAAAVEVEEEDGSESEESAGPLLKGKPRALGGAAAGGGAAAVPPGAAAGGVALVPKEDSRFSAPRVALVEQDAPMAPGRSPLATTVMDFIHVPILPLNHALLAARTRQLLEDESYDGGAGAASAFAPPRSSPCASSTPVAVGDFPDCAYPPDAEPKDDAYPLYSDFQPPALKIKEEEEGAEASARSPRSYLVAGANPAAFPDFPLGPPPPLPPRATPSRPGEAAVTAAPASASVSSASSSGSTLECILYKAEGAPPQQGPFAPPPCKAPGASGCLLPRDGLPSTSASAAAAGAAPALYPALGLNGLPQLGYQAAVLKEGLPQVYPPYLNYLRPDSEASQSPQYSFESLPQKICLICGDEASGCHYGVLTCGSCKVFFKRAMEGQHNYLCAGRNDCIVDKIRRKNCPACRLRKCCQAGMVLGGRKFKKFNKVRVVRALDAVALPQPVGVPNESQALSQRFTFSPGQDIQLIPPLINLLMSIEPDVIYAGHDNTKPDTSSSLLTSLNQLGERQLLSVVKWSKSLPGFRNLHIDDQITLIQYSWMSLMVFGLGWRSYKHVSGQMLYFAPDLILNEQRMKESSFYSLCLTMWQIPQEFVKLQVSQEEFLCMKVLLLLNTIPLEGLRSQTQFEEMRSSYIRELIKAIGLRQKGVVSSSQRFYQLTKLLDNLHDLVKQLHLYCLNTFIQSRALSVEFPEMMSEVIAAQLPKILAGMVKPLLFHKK
Description: Antagonism at the PR-B Progesterone Receptor
The transactivation assay is carried out as described in WO 02/054064.

[2] = target: T1, PR-B progesterone receptor; experiment: Agonism on the PR-B progesterone receptor (transactivation assay); type: cell-based; settings: for EC50: read-out: Agonistic Activity EC50
Description: Agonism on the PR-B Progesterone Receptor
The transactivation assay is carried out as described in Fuhrmann et al. (Fuhrmann U., Hess-Stump H., Cleve A., Neef G., Schwede W., Hoffmann J., Fritzemeier K.-H., Chwalisz K., Journal of Medicinal Chem, 43, 26, 2000, 5010-5016).

Cc1noc(=O)c2ccc(NC(=O)C(O)(C#Cc3ccccc3)CC3(c4ccccc4Cl)CCCC3)cc12 (racemic) [Example 5, rac-6-{2-[(2-Chlorophenyl)cyclopentyl]methyl-2-hydroxy-4-phenylbut-3-ynoylamino}-4-methyl-2,3-benzoxazin-1-one]
Antagonistic Activity Efficacy [1]: 86% | IC50 [1]: 0.2 nM | Agonistic Activity Efficacy [2]: 10% | EC50 [2]: 0.2 nM

C#CC(O)(CC(C)(C)c1ccccc1)C(=O)Nc1ccc2c(=O)onc(C)c2c1 (racemic) [Example 14, rac-6-[2-Ethynyl-2-hydroxy-4-methyl-4-phenylpentanoylamino]-4-methyl-2,3-benzoxazin-1-one]
Antagonistic Activity Efficacy [1]: 53% | IC50 [1]: 6 nM | Agonistic Activity Efficacy [2]: 35% | EC50 [2]: 7 nM

Cc1noc(=O)c2ccc(NC(=O)C(O)(C#Cc3ccccc3)CC(C)(C)c3ccccc3)cc12 (racemic) [Example 16, rac-6-[2-Hydroxy-4-methyl-4-phenyl-2-(phenylethynyl)pentanoylamino]-4-methyl-2,3-benzoxazin-1-one]
Antagonistic Activity Efficacy [1]: 82% | IC50 [1]: 0.7 nM | Agonistic Activity Efficacy [2]: 13% | EC50 [2]: 0.5 nM

COc1ccc(C#CC(O)(CC(C)(C)c2ccccc2)C(=O)Nc2ccc3c(=O)onc(C)c3c2)cc1 (racemic) [Example 18, rac-6-[2-Hydroxy-2-[(4-methoxyphenyl)ethynyl]-4-methyl-4-phenylpentanoylamino]-4-methyl-2,3-benzoxazin-1-one]
Antagonistic Activity Efficacy [1]: 89% | IC50 [1]: 0.2 nM | Agonistic Activity Efficacy [2]: 8%

Cc1noc(=O)c2ccc(NC(=O)C(O)(C#Cc3ccccc3C(F)(F)F)CC(C)(C)c3ccccc3)cc12 (racemic) [Example 24, rac-6-[2-Hydroxy-4-methyl-4-phenyl-2-[(2-trifluoromethylphenyl)ethynyl]-pentanoylamino]-4-methyl-2,3-benzoxazin-1-one]
Antagonistic Activity Efficacy [1]: 100% | IC50 [1]: 2 nM | Agonistic Activity Efficacy [2]: 0%

Cc1cc(C)c(C#CC(O)(CC(C)(C)c2ccccc2)C(=O)Nc2ccc3c(=O)onc(C)c3c2)cc1C (racemic) [Example 35, rac-6-[2-[(2,4,5-Trimethylphenyl)ethynyl]-2-hydroxy-4-methyl-4-phenylpentanoylamino]-4-methyl-2,3-benzoxazin-1-one]
Antagonistic Activity Efficacy [1]: 100% | IC50 [1]: 2 nM | Agonistic Activity Efficacy [2]: 0%

Cc1ccc(C#CC(O)(CC(C)(C)c2ccccc2)C(=O)Nc2ccc3c(=O)onc(C)c3c2)cc1 (single isomer, unassigned; (-)) [Example 17b, (−)-6-[2-Hydroxy-4-methyl-2-[(4-methylphenyl)ethynyl]-4-phenylpentanoylamino]-4-methyl-2,3-benzoxazin-1-one]
Antagonistic Activity Efficacy [1]: 88% | IC50 [1]: 0.03 nM | Agonistic Activity Efficacy [2]: 7%
